Values quoted from earlier work as cited in patent publication US20120177693A1, “DEEP LUNG PULMONARY DELIVERY OF TREPROSTINIL” (Aradigm Corporation, priority 2008, published 2012).

Details: inhaled; Voswinckel et al.; cited from earlier work

CC#CCC(C)[C@H](O)/C=C/[C@@H]1[C@H]2C/C(=C/CCCC(=O)O)C[C@H]2C[C@H]1O (some centres unmarked) [iloprost]
Plasma half-life: about 8 min
Time of peak plasma levels: immediately after the completion of the inhalation session
